Test results: PubChem BioAssay (NCI)
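The compound was tested at five concentrations on cells cultured in 96-well plates, with a 48-hour exposure period. The concentration for 50% growth inhibition is given as GI50. The concentration for full growth arrest is given as TGI.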

Legend:
Test in all cases: DTP human tumour cell line panel, 48 h
UO-31 renal = system: UO-31 renal
NCI-H23 lung = system: NCI-H23 lung
CCRF-CEM leukemia = system: CCRF-CEM leukemia
A549 NSCLC = system: A549 NSCLC
PC-3 prostate = system: PC-3 prostate
OVCAR-4 ovarian = system: OVCAR-4 ovarian
HS 578T breast = system: HS 578T breast
NCI/ADR-RES ovarian = system: NCI/ADR-RES ovarian
MCF7 breast = system: MCF7 breast
RXF 393 renal = system: RXF 393 renal

| Compound | TGI (UO-31 renal) | TGI (NCI-H23 lung) | TGI (CCRF-CEM leukemia) | TGI (A549 NSCLC) | TGI (PC-3 prostate) | TGI (OVCAR-4 ovarian) | TGI (HS 578T breast) | TGI (NCI/ADR-RES ovarian) | TGI (MCF7 breast) | TGI (RXF 393 renal) | GI50 (UO-31 renal) | GI50 (A549 NSCLC) | GI50 (RXF 393 renal) | GI50 (NCI-H23 lung) | GI50 (CCRF-CEM leukemia) | GI50 (OVCAR-4 ovarian) | GI50 (NCI/ADR-RES ovarian) | GI50 (MCF7 breast) | GI50 (PC-3 prostate) |
| --- | --- | --- | --- | --- | --- | --- | --- | --- | --- | --- | --- | --- | --- | --- | --- | --- | --- | --- | --- |
| CC1Oc2c(c(O)cc3oc(=O)cc(-c4ccccc4)c23)C(=O)C1C (centres undefined) | > 100 µM | > 100 µM | > 100 µM |  |  |  |  |  |  |  |  |  |  |  |  |  |  |  |  |
| NCCCN1CCN(CCCNc2ccc3ncn4c5ccccc5c(=O)c2c34)CC1 | 22.5 µM | 6.98 µM | > 25 µM | > 25 µM | 10.8 µM | 2.89 µM | 22.1 µM | > 25 µM | > 25 µM |  |  |  |  |  |  |  |  |  |  |
| CC(C)=CCC/C(C)=C/CCC1(C)C2COC(=O)C21 (centres undefined) | > 100 µM | > 100 µM | 80.8 µM |  | > 100 µM | > 100 µM |  |  | > 100 µM | > 100 µM |  |  |  |  |  |  |  |  |  |
| Cc1ccc(NC(=O)NC23CC4CC(CC(F)(C4)C2)C3)cc1 | > 100 µM | > 100 µM | > 100 µM | > 100 µM |  |  |  |  |  | > 100 µM |  |  |  |  |  |  |  |  |  |
| O.O=[Se](=O)(O)O.[NH-]C1CCCCC1[NH-].[Pt+2] (centres undefined) | > 68 µM | > 94.9 µM | > 100 µM | > 100 µM |  | > 100 µM |  | > 100 µM | > 47.1 µM | 30.5 µM | 7.66 µM | 5.26 µM | 4.63 µM | 10.9 µM | 9.8 µM | 11.6 µM | 11.3 µM | 3.49 µM |  |
| COc1ccc(CNc2cnc3cc(N)ccc3n2)cc1OC | > 100 µM |  | > 100 µM | > 100 µM |  | > 100 µM |  |  |  |  |  |  |  |  |  |  |  |  |  |
| CC(C)(C)OC(=O)N[C@@H](Cc1ccccc1)C(=O)N1CC[C@@H](C(=O)N2[C@H]3CC4CC[C@@]3(CS2(=O)=O)C4(C)C)N1 |  | > 100 µM | > 100 µM | > 100 µM | > 100 µM | > 100 µM | > 100 µM | > 100 µM |  | > 100 µM |  |  |  |  |  |  |  |  |  |
| O=c1oc2ccccc2cc1-c1nc2ccccc2s1 | 17.6 µM | 39.4 µM |  | 16.8 µM | > 84.3 µM | 29 µM | 20.4 µM |  | 6.53 µM | 24.2 µM |  |  |  |  |  |  |  |  |  |
| CC(=O)Nc1[nH]c(=O)[nH]c(=O)c1N(C(C)=O)C(C)=O | > 100 µM |  | > 100 µM | > 100 µM |  | > 100 µM |  |  |  | > 100 µM |  |  |  |  |  |  |  |  |  |
| O=C(c1ccccc1)c1ccc2c(c1)N=C(c1ccc(Cl)c(Cl)c1)CC(c1ccc3ccccc3c1)N2 (centres undefined) | > 100 µM | > 100 µM | > 100 µM | > 100 µM |  | > 100 µM |  |  |  | > 100 µM |  |  |  |  |  |  |  |  |  |
| CN1C(C(=O)Nc2ccccn2)=C(O)c2ccccc2S1(=O)=O | > 100 µM | > 100 µM | > 100 µM | > 100 µM | > 100 µM | > 100 µM |  | > 100 µM | > 100 µM | > 100 µM |  |  |  |  |  |  |  |  |  |
| CCn1c2ccccc2c2cc(NC(=O)c3c(C)[nH]c(=O)[nH]c3=S)ccc21 | > 100 µM | > 100 µM | > 100 µM |  | > 100 µM | > 100 µM | > 100 µM | > 100 µM | > 100 µM | > 100 µM |  |  |  |  |  |  |  |  |  |
| Brc1ccc2[nH]cc(-c3nc(-c4c[nH]c5ccncc45)cs3)c2c1 | 2.8 µM | 3.17 µM | 5.14 µM |  | 3.06 µM |  |  |  |  | 2.87 µM | 1.47 µM |  | 1.49 µM | 1.64 µM | 2.24 µM |  |  |  | 1.58 µM |
